Reference: patent US20140004062A1, “COMPOSITION INCLUDING 3-BROMO-4,5-DIHYDROXYBENZALDEHYDE COMPOUND AS EFFECTIVE COMPONENT FOR PROTECTING AND TREATING SKIN CELL AGANIST ULTRAVIOLET” (Jeju National University Industry-Academic Cooperation …, priority 2012, published 2014)

Tests used:
[1] = DPPH radical removal ability; format: physicochemical; settings: 3 h
Method: BDB at a concentration of 10, 20, 30 μM and 2 mM NAC were added to a 1×10^−4 M solution of DPPH in methanol. The resulting reaction mixture was shaken vigorously. After 3 h, the amount of unreacted DPPH was measured at 520 nm using a spectrophotometer.

[2] = system: HaCaT keratinocytes; assay: Intracellular ROS induced by H2O2, DCF-DA method; format: cell-based, human; settings: H2O2 1 mM
Method: (§1) The DCF-DA method was used to detect intracellular ROS levels in HaCaT keratinocytes generated by either H2O2 or UVB radiation. For the detection of ROS in H2O2-treated cells, cells were seeded at a density of 1.5×10^5 cells/well. Sixteen hours after plating, cells were treated with BDB at a concentration of 10, 20, 30 μM and 2 mM NAC. After 30 min, H2O2 (1 mM) was added to the plate. Cells were incubated for an additional 30 min at 37° C., and DCF-DA solution (25 μM) was then added. Ten minutes after the addition of DCF-DA, the fluorescence of 2′,7′-dichlorofluorescein (DCF) was detected and quantified using a PerkinElmer LS-5B spectrofluorometer (PerkinElmer, Waltham, Mass., USA). For the detection of ROS in UVB-exposed cells, cells were treated with BDB as above. After one hour, cells were exposed to UVB radiation at a dose of 30 mJ/cm^2. […] Cells were incubated for an additional 24 h at 37° C., DCF-DA solution (25 μM) was added and detected as above.

[3] = system: HaCaT keratinocytes; assay: Intracellular ROS induced by UVB, DCF-DA method; format: cell-based, human; settings: UVB 30 mJ/cm^2, 24 h
Method: as §1

[4] = system: HaCaT cells; assay: MTT assay, viability of HaCaT cells treated with BDB; format: cell-based, human; settings: up to the concentration of 30 μM; tested at 10-50 μM
Method: (§2) Human keratinocytes (HaCaT cells) were obtained from the Amore Pacific Company (Gyeonggi-do, Republic of Korea). Cells were maintained at 37° C. in an incubator with a humidified atmosphere of 5% CO2. Cells were cultured in Dulbecco's modified Eagle's medium containing 10% heat-inactivated fetal calf serum, streptomycin (100 μg/mL) and penicillin (100 unit/mL).
(§3) The effect of BDB on the viability of HaCaT cells was assessed as follows. Cells were seeded in a 96-well plate at a density of 1×10^5 cells/mL. Sixteen hours after plating, BDB was added at a concentration of at 10, 20, 30, 40, and 50 μM. To evaluate the ability of BDB to protect keratinocytes against UVB-exposure, BDB was added at a concentration of 10, and 30 μM, and cells were exposed to UVB radiation one hour later and incubated at 37° C. for 24 h. Fifty microliter of MTT stock solution (2 mg/mL) was added to each well to yield a total reaction volume of 200 μl. After incubating the cells for 4 h, the plate was centrifuged at 800×g for 5 min, and the supernatants were aspirated. The formazan crystals in each well were dissolved in dimethylsulfoxide (150 μl), and the absorbance at 540 nm was read on a scanning multi-well spectrophotometer.

[5] = system: HaCaT cells; assay: MTT assay, viability of UVB-exposed HaCaT cells; format: cell-based; settings: Homo sapiens, light or radiation study, UVB 1 h later, 24 h, untreated UVB cells 65%, read-out: viability of the cell exposed to UVB
Method: as §2, §3

[6] = Detection of superoxide anion, xanthine/xanthine oxidase system, ESR spectrometry; format: physicochemical; settings: BDB 30 μM; signal without BDB 2765
Method: The superoxide anion was produced via the xanthine/xanthine oxidase system and then reacted with a nitrone spin trap, DMPO. The DMPO/.OOH adducts were detected using a JES-FA electron spin resonance (ESR) spectrometer (JEOL, Tokyo, Japan). Briefly, ESR signaling was recorded 5 min after 20 μl of xanthine oxidase (0.25 U/mL) was mixed with 20 μl each of xanthine (5 mM), DMPO (1.5 M) and BDB (30 μM). The ESR spectrometer parameters were set at a magnetic field of 336 mT, power of 1.00 mW, frequency of 9.4380 GHz, modulation amplitude of 0.2 mT, gain of 500, scan time of 0.5 min, scan width of 10 mT, time constant of 0.03 sec, and temperature of 25° C.

[7] = Detection of hydroxyl radical, Fenton reaction, ESR spectrometry; format: physicochemical; settings: BDB 30 μM; signal without BDB 3851
Method: The hydroxyl radical was generated by the Fenton reaction (H2O2+FeSO4) and then reacted with DMPO. The resultant DMPO/.OH adducts were detected using an ESR spectrometer. The ESR spectrum was recorded 2.5 min after a phosphate buffer solution (pH 7.4) was mixed with 0.2 mL each of 0.3 M DMPO, 10 mM FeSO4, 10 mM H2O2, and BDB (30 μM). The ESR spectrometer parameters were set at a magnetic field of 336 mT, power of 1.00 mW, frequency of 9.4380 GHz, modulation amplitude of 0.2 mT, gain of 200, scan time of 0.5 min, scan width of 10 mT, time constant of 0.03 sec, and temperature of 25° C.

[8] = UVB absorption analysis, ultraviolet/visible spectrophotometer; format: physicochemical
Method: To study the UVB absorption spectra of BDB, which was diluted in DMSO at a ratio 1:500 (v/v), it was scanned by UV at 200-500 nm using Biochrom Libra S22 ultraviolet/visible spectrophotometer.

[9] = system: HaCaT cells; assay: Lipid peroxidation, 8-isoprostane enzyme immunoassay; format: cell-based, human; settings: UVB-exposed cells treated with BDB, 24 h; UVB alone 3.1 pg/mg
Method: (§4) A cell was exposed to UVB, and then after 24 hours, effects of BDB in inhibiting the cell membrane lipid peroxidation, a protein modification, and a cell DNA damage of UVB-irradiated cell was observed. Lipid peroxidation was assayed by the determination of 8-isoprostane levels in the culture medium. A commercial enzyme immunoassay (Cayman Chemical, Ann Arbor, Mich., USA) was employed according to the manufacturer's instructions. Lipid peroxidation was also estimated using a fluorescent probe, DPPP. Cells were incubated with 5 μM DPPP for 15 min in the dark and then exposed to UVB. DPPP fluorescence image was captured using a Zeiss Axiovert 200 inverted microscope at an excitation wavelength of 351 nm and an emission wavelength of 380 nm and quantified.

[10] = system: HaCaT cells; assay: Lipid peroxidation, DPPP fluorescent probe; format: cell-based, human; settings: UVB-irradiated cells treated with BDB
Method: as §4

[11] = system: HaCaT cells; assay: Protein carbonyl formation ELISA; format: cell-based, human; settings: UVB-irradiated cells treated with BDB
Method: The amount of carbonyl formation in protein was determined using an Oxiselect™ protein carbonyl ELISA kit purchased from Cell Biolabs (San Diego, Calif., USA) according to the manufacturer's instructions.

[12] = system: HaCaT cells; assay: Comet assay, oxidative DNA damage; format: cell-based, human; settings: UVB-exposed cells treated with BDB; UVB alone 37%
Method: The degree of oxidative DNA damage was determined in a comet assay. Cell suspension was mixed with 75 μL of 0.5% low melting agarose (LMA) at 39° C. and the mixture was spread on a fully frosted microscopic slide pre-coated with 200 μL of 1% normal melting agarose (NMA). After solidification of the agarose, the slide was covered with another 75 μl of 0.5% LMA and then immersed in a lysis solution (2.5 M NaCl, 100 mM Na-EDTA, 10 mM Tris, 1% Trion X-100 and 10% DMSO, pH 10) for 1 h at 4° C. The slides were then placed in a gel-electrophoresis apparatus containing 300 mM NaOH and 10 mM Na-EDTA (pH 13) for 40 min to allow for DNA unwinding and the expression of the alkali-labile damage. An electrical field was then applied (300 mA, 25 V) for 20 min at 4° C. to draw the negatively charged DNA towards the anode. The slides were washed three times for 5 min at 4° C. in a neutralizing buffer (0.4 M Tris, pH 7.5), stained with 75 μL of propidium iodide (20 μg/mL) and observed using a fluorescence microscope and an image analyzer (Kinetic Imaging, Komet 5.5, UK). The percentage of total fluorescence in the DNA tails and the tail length of 50 cells per slide were recorded.

[13] = system: HaCaT cells; assay: Nuclear staining with Hoechst 33342, apoptotic bodies; format: cell-based, human; settings: BDB 30 μM, UVB 1 h later, 24 h; UVB alone 16
Method: Cells were treated with BDB at a concentration of 30 μM and exposed to UVB radiation 1 h later. Cells were incubated for an additional 24 h at 37° C. Hoechst 33342 (1.5 μL of a 10 mg/mL stock), a DNA-specific fluorescent dye, was added to each well, and the cells were incubated for 10 min at 37° C. The stained cells were visualized under a fluorescence microscope equipped with a CoolSNAP-Pro color digital camera. The degree of nuclear condensation was evaluated, and the apoptotic cells were quantified.

[14] = system: HaCaT cells; assay: Sub-G1 hypodiploid cells, flow cytometry; format: cell-based, human; settings: BDB 30 μM, UVB 1 h later, 24 h; UVB alone 17%, no UVB 1%
Method: Flow cytometry was performed in order to determine the apoptotic sub-G1 hypodiploid cells. Cells were treated with BDB at a concentration of 30 μM and exposed to UVB radiation 1 h later. Cells were incubated for an additional 24 h at 37° C. Cells were harvested, and fixed in 1 mL of 70% ethanol for 30 min at 4° C. Cells were washed twice with PBS, and then incubated for 30 min in the dark at 37° C. in 1 mL of PBS containing 100 μg propidium iodide and 100 μg RNase A. Flow cytometric analysis was performed using a FACS Calibur flow cytometer (Becton Dickinson, Mountain View, Calif., USA). Sub-G1 hypodiploid cells were assessed based on the histograms generated using the computer programs, Cell Quest and Mod-Fit.

[15] = system: HaCaT cells; assay: Cytoplasmic histone-associated DNA fragmentation kit; format: cell-based, human; settings: UVB-irradiated cells treated with BDB
Method: Cellular DNA fragmentation was assessed by analyzing the extent of cytoplasmic histone-associated DNA fragmentation using a kit from Roche Diagnostics (Portland, Oreg., USA) according to the manufacturer's instructions. A cytoplasmic histone-associated DNA fragmentation was increased in UVB-irradiated cells as compared with control cells. The level of DNA fragmentation was decreased in UVB-irradiated cells that were treated with BDB (see FIG. 4c).

[16] = system: hematopoietic necrosis virus; settings: cited from earlier work
[17] = system: infectious pancreatic necrosis virus; settings: cited from earlier work
[18] = UV/visible scan 200 nm to 500 nm

SMILES: CC(=O)N[C@@H](CS)C(=O)O [NAC, N-acetyl cysteine, reference compound]
- DPPH radical scavenged ([1]; 2 mM, positive control): 89%
- intracellular ROS induced by H2O2 removed ([2]; 2 mM): 80%
- intracellular ROS induced by UVB removed ([3]; 2 mM): 22%

SMILES: O=Cc1cc(O)c(O)c(Br)c1 [BDB, 3-Bromo-4,5-dihydroxybenzaldehyde]
- toxicity on human HaCaT keratinocyte (cell viability, MTT) [4]: does not exhibit toxicity
- viability at 10 µM ([5]; BDB 10 μM): 73%
- viability at 20 µM ([5]; BDB 20 μM): 73%
- viability at 30 µM ([5]; BDB 30 μM): 77%
- DPPH radical scavenged ([1]; 10 μM, 1×10^−4 M DPPH in methanol): 6%
- DPPH radical scavenged ([1]; 20 μM, 1×10^−4 M DPPH in methanol): 21%
- DPPH radical scavenged ([1]; 30 μM, 1×10^−4 M DPPH in methanol): 25%
- intracellular ROS induced by H2O2 removed ([2]; 10 μM): 64%
- intracellular ROS induced by H2O2 removed ([2]; 20 μM): 67%
- intracellular ROS induced by H2O2 removed ([2]; 30 μM): 70%
- intracellular ROS induced by UVB removed ([3]; 10 μM): 17%
- intracellular ROS induced by UVB removed ([3]; 20 μM): 22%
- intracellular ROS induced by UVB removed ([3]; 30 μM): 23%
- superoxide anion signal (ESR, DMPO/.OOH adducts) [6]: 2063
- hydroxyl radical signal (ESR, DMPO/.OH adducts) [7]: 3002
- absorption peak 1 position [8, 18]: 288 nm
- absorption peak 2 position [8, 18]: 357 nm
- UVB absorption ability ([8]; diluted in DMSO 1:500 (v/v), scanned at 200-500 nm): exhibited the absorption ability at 280 to 320 nm
- 8-isoprostane level (lipid peroxidation) [9]: 1.9 pg/mg
- DPPP fluorescence (lipid peroxidation) [10]: exhibited the fluorescence in the more small range
- carbonyl formation induced by UVB (protein carbonyl level) [11]: inhibited
- ratio of DNA in the tail (comet assay) [12]: 18%
- Apoptotic Index (nuclear segments, Hoechst 33342) [13]: 9
- apoptotic sub-G1 DNA [14]: 8%
- level of cytoplasmic histone-associated DNA fragmentation [15]: decreased
- antiviral effect [16]: antiviral effect
- antiviral effect [17]: antiviral effect
